Assay results: patent US9938335B2, “Glucagon and GLP-1 co-agonist compounds” (Eli Lilly and Company, priority 2015, dated 2018)
Where “and” joins values, the source holds several entries; their conditions need not be identical. Equal values may be shown once. Read-outs that look alike come from different tables or passages of the source.

What was measured:
hGcg-R = hGcg-R (Homo sapiens, UniProt P47871); experiment: Functional activation of hGcg-R in primary human hepatocytes (cAMP); assay type: cell-based; design: stimulating cAMP production at the endogenous Gcg receptors; endogenous in cells; host or cells: cryopreserved primary human hepatocytes; conditions: primary human hepatocytes
Description: Primary human hepatocytes are used to determine functional activity of compounds on stimulating cAMP production at the endogenous Gcg receptors. Vials of human primary hepatocytes are frozen in a liquid nitrogen tank. Upon removal, vials are thawed immediately in a water bath having a temperature of 37° C. Cell suspension is then transferred to 50 ml CHRM (Gibco/Life Technologies cat#CM7000 Cryopreserved Hepatocyte Recovery Medium).
The cell suspension is centrifuged at 1,000×g for 10 min. Cell pellets are resuspended in 5 ml of Plating Media after removing the CHRM by aspiration. The Plating Media is prepared by adding entire contents of CM3000 Supplement Packs to 500 ml Williams Media (Gibco/Life Technologies), followed by sterile filtration through a 0.22 μm membrane.
The cell density is counted on hemocytometer, by adding 100 μl of cell suspension to 100 μl Trypan Blue (HyClone Trypan Blue 0.04%, catalog number SV30084.01). The cell suspension is further diluted in the Plating Media to the final cell density of 0.8×10^6 cells per ml. […] 65 ml of the cell suspension is then added to each well of the Collagen coated 96-well plate to final cell density 50,000 cells per well. The cell plate is incubated in a 37° C., 5% CO2 incubator for 3-4 hours.
After 3-4 hours incubation, the media is aspirated and replaced with 100 ml Maintenance Media. The maintenance media is prepared by adding entire contents of CM4000 Supplement Packs to 500 ml Williams Media (Gibco/Life Technologies), followed by sterile filtration through a 0.22 μm membrane. The cell plate is returned to the 37° C., 5% CO2 incubator overnight in preparation for the cAMP assay.
The cell plate is removed from the incubator and the media is removed by gentle aspiration without disturbing the cell monolayer.
cAMP concentration is measured using a HTRF cAMP assay kit (Cisbio): cAMP-d2 conjugate in cell lysis buffer (40 μl) followed by the antibody anti-cAMP-Eu^3+-Cryptate, also in cell lysis buffer (40 μl), is added to the cells of the plate.

[1] = Pharmacokinetics in cynomolgus monkeys; assay type: in vivo; conditions: for Cmax: read-out: C0 or Cmax
Description: The compounds are administered by a single intravenous or subcutaneous dose of 50 nmole/kg or 250 nmole/kg.
The plasma concentrations of compounds are determined by a LC/MS method. Briefly, a compound of the present invention is extracted from 100% monkey plasma (25 μl) using acetonitrile. Two distinct layers are formed upon centrifugation with the compound located in the liquid layer. An 80 μl aliquot of the supernatant was transferred to a 96-well plate, diluted with 150 μl of water and 25 μl of formic acid. The diluted sample (10 μl) was injected onto a Supelco Analytical Discovery BIO Wide Pore C5-3, 5 cm×1 mm, 3 um column. The column effluent is directed into a Thermo Q-Exactive mass spectrometer for detection and quantitation.

rat GLP-1-R = target: T1, rat GLP-1-R (Rattus norvegicus, UniProt P32301); experiment: Functional activation of the rat GLP-1-R in insulinoma cell line INS1 832-3 (cAMP); assay type: cell-based
T1 construct: stimulating cAMP production at the endogenous GLP-1 receptors; endogenous in cells; host or cells: INS1 832-3 rat insulinoma cells
T1 sequence (P32301 22-463): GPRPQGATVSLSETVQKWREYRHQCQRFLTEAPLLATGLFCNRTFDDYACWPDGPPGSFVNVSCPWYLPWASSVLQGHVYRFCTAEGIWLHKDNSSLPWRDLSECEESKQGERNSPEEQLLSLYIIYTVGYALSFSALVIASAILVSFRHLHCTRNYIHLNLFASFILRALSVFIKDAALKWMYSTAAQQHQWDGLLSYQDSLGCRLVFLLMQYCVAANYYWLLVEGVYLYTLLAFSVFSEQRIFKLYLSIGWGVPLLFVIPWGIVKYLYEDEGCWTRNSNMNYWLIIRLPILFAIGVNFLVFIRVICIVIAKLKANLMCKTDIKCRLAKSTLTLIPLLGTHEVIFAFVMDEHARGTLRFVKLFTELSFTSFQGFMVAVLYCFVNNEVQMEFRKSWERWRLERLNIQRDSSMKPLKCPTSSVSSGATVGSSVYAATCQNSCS
Description: Performance of the assay requires detachment of the cells from culture flasks using Enzyme Free Cell Stripper and pelleted by centrifugation at 1000 rpm for 5 minutes at room temperature. […] After 2 hours starvation, cells are treated with compound by adding 10 μl of 5× compound dilutions into the cell plates (n=2) and incubated in a 37° C., 5% CO2 incubator for 30 minutes.
cAMP concentration is measured using a HTRF cAMP assay kit (Cisbio): cAMP-d2 conjugate in cell lysis buffer (20 μl) followed by the antibody anti-cAMP-Eu^3+-Cryptate, also in cell lysis buffer (20 μl), is added to the cells of the plate.
The assay is performed with duplicated plates.

DIO mice (C57BL/6) = experiment: Effects on energy expenditure in DIO mice (indirect calorimetry); assay type: in vivo, mouse; conditions: for Cumulative Heat (Kcal/kg lean mass/3 day): test article 15 nmol/kg, semaglutide 60 nmol/kg sc every three days
Description: Seven to eight months old male DIO mice (C57BL/6) weighing 45-50 g are used in this study to assess the effect of compounds of the present invention on energy metabolism. Animals are individually housed in a temperature-controlled (24° C.) facility with a 12 hour light/dark cycle (lights on 22:00), and free access to food (TD95217)(Teklad) and water. After 2 weeks acclimation to the facility, mice are randomized to treatment groups (N=6/group) based on body weight so each group has similar starting mean body weight. Animals are placed in a PhenoMaster/LabMaster calorimeter (TSE Systems, Chesterfield, Mo.) for 8 days of acclimation.
Heat and […] (RER) are measured by indirect calorimetry as described using an open-circuit calorimetry system. RER is the ratio of the volume of CO2 produced (VCO2) to the volume of O2 consumed (VO2). Heat is calculated with lean body weight considered. The energy expenditure is kcal/kg/3 day and expressed as mean±SEM of 6 mice per group. Statistical significance is assessed by two-way ANOVA followed by Tukey's multiple comparison test.

[2] = Viscosity (Rheosense mVroc Viscometer); assay type: physicochemical; conditions: approximately 10 mg/mL peptide in 10 mM Tris + 3 mg/mL m-cresol at pH 8.0; 25° C.; shear rate 1934 s^−1
Description: Viscosity of compounds of the present invention is measured in a Rheosense mVroc Viscometer with the following settings:
(a) Syringe size: 500 μL syringe
(b) Flow Rate: 100 μL/min flow rate
(c) Average Temperature: 25° C.
(d) Shear Rate: 1934 s^−1
Dry powder (compound) is weighed out, dissolved in water as a cloudy precipitate, and titrated to approximately pH 8.0 with 1N NaOH. The solution is sonicated and swirled by hand until peptide is in solution. Samples are sterile filtered (0.22 μm PVDF filters). Samples are then analyzed by UV-Vis to assess stock solution concentrations. Solutions are diluted to final concentration using 3× m-cresol in 10 mM Tris pH 8.0 buffer to final concentrations of approximately 10 mg/mL peptide by weight in 10 mM Tris+3 mg/mL m-cresol at pH 8.0. Samples were filtered through 0.22 μm filters immediately prior to viscosity analysis. 25 μL of sample are removed to verify concentration by RP-HPLC before and after analysis.
Water and buffer control samples are measured before and after each sample is analyzed. The instrument is washed with buffer (3×) in between analysis of each sample. The samples are loaded into individual syringes and analyzed. The first measurement is not included in the final calculation to allow for equilibration with the system. Samples are then analyzed in triplicate (n=3).
The viscosity of Compounds 1-4 was measured essentially as described in this assay.

[3] = Table 9: single IV 50 nmol/kg, individual animals
[4] = Table 9: single SC 50 nmol/kg, individual animals
[5] = Table 9: single SC 250 nmol/kg, individual animals
[6] = male, cynomolgus monkey, plasma, iv, 50 nmol/kg, Table 9: single IV 50 nmol/kg, mean
[7] = male, cynomolgus monkey, plasma, sc, 50 nmol/kg, Table 9: single SC 50 nmol/kg, individual animals
[8] = male, cynomolgus monkey, plasma, sc, 50 nmol/kg, Table 9: single SC 50 nmol/kg, mean
[9] = male, cynomolgus monkey, plasma, sc, 250 nmol/kg, Table 9: single SC 250 nmol/kg, individual animals
[10] = male, cynomolgus monkey, plasma, sc, 250 nmol/kg, Table 9: single SC 250 nmol/kg, mean

Sequence of hGcg-R (P47871 26-477): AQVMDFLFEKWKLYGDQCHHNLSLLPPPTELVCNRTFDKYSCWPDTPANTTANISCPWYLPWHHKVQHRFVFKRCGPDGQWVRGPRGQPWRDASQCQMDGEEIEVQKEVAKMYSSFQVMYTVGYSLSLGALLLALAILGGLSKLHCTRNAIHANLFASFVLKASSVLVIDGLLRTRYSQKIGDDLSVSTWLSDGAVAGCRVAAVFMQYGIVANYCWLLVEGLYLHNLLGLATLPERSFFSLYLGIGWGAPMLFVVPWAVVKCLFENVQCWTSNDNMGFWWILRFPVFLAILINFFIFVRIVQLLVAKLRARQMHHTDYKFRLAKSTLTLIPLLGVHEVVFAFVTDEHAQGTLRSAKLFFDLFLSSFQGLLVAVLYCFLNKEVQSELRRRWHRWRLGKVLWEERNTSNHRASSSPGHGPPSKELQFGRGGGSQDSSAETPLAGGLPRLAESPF

CC(C)C[C@H](NC(=O)[C@H](CC(C)C)NC(=O)[C@H](Cc1c[nH]c2ccccc12)NC(=O)[C@H](CCC(=O)O)NC(=O)[C@@H](NC(=O)[C@H](Cc1ccccc1)NC(=O)[C@H](CCC(=O)O)NC(=O)[C@H](CCCCNC(=O)COCCOCCNC(=O)COCCOCCNC(=O)CC[C@H](NC(=O)CCCCCCCCCCCCCCCCCCC(=O)O)C(=O)O)NC(=O)[C@H](C)NC(=O)[C@H](CCCCN)NC(=O)[C@H](CCCCN)NC(=O)[C@H](CCC(=O)O)NC(=O)[C@H](CC(=O)O)NC(=O)[C@H](CC(C)C)NC(=O)[C@H](Cc1ccc(O)cc1)NC(=O)[C@H](CCCCN)NC(=O)[C@H](CO)NC(=O)[C@H](Cc1ccc(O)cc1)NC(=O)[C@H](CC(=O)O)NC(=O)[C@H](CO)NC(=O)[C@@H](NC(=O)[C@H](Cc1ccccc1)NC(=O)[C@@H](NC(=O)CNC(=O)[C@H](CCC(N)=O)NC(=O)C(C)(C)NC(=O)[C@@H](N)Cc1c[nH]cn1)[C@@H](C)O)[C@@H](C)O)C(C)C)C(=O)N[C@@H](CCC(=O)O)C(=O)NCC(=O)NCC(=O)N1CCC[C@H]1C(=O)N[C@@H](CO)C(=O)N[C@@H](CO)C(=O)NCC(N)=O [Compound 2]
EC50 (hGcg-R; cAMP, 1 hour): 159 nM
cAMP production (hGcg-R; data not shown): increased cAMP production in a dose-dependent manner
AUC(0-inf) [1, 3]: 93.174 µM·h
CL/F [1, 3]: 12.7 mL/day/kg and 13 mL/day/kg
Cmax [1, 3]: 1100 nM
T1/2 ([1]; Table 9: single IV 50 nmol/kg, male cynomolgus monkeys, individual animals): 131 h
CL/F ([1]; Table 9: single IV 50 nmol/kg, mean): 12.7 mL/day/kg
AUC(0-inf) [1, 4]: 82.792 µM·h
CL/F [1, 4]: 14.4 mL/day/kg
T1/2 [1, 4]: 106 h
Cmax [1, 4]: 452 nM
AUC(0-inf) [1, 5]: 540.175 µM·h
CL/F [1, 5]: 11 mL/day/kg
T1/2 [1, 5]: 104 h
Cmax [1, 5]: 3620 nM
AUC(0-inf) ([1]; cynomolgus monkey, plasma, sc, 250 nmol/kg, Table 9: single SC 250 nmol/kg, mean, read-out: AUC0-inf): 485 µM·h
CL/F ([1]; cynomolgus monkey, plasma, sc, 250 nmol/kg, Table 9: single SC 250 nmol/kg, mean, read-out: CL/F (converted)): 12.5 mL/day/kg
AUC(0-inf) ([1]; male, cynomolgus monkey, plasma, iv, 50 nmol/kg, Table 9: single IV 50 nmol/kg, individual animals, read-out: AUC0-inf): 94.8 µM·h
Cmax ([1]; male, cynomolgus monkey, plasma, iv, 50 nmol/kg, Table 9: single IV 50 nmol/kg, individual animals): 1020 nM
half-life ([1]; male, cynomolgus monkey, plasma, iv, 50 nmol/kg, Table 9: single IV 50 nmol/kg, male cynomolgus monkeys, individual animals): 88 h
half-life [1, 6]: 110 h
AUC(0-inf) ([1]; male, cynomolgus monkey, plasma, iv, 50 nmol/kg, Table 9: single IV 50 nmol/kg, mean, read-out: AUC0-inf): 94 µM·h
Cmax [1, 6]: 1060 nM
Tmax [1, 7]: 24 h
half-life [1, 7]: 137 h
AUC(0-inf) ([1]; male, cynomolgus monkey, plasma, sc, 50 nmol/kg, Table 9: single SC 50 nmol/kg, individual animals, read-out: AUC0-inf): 101 µM·h
Cmax [1, 7]: 474 nM
CL/F ([1]; male, cynomolgus monkey, plasma, sc, 50 nmol/kg, Table 9: single SC 50 nmol/kg, individual animals, read-out: CL/F (converted)): 12 mL/day/kg
Tmax [1, 8]: ~24 h
half-life [1, 8]: 122 h
AUC(0-inf) ([1]; male, cynomolgus monkey, plasma, sc, 50 nmol/kg, Table 9: single SC 50 nmol/kg, mean, read-out: AUC0-inf): 91.9 µM·h
Cmax [1, 8]: 463 nM
CL/F ([1]; male, cynomolgus monkey, plasma, sc, 50 nmol/kg, Table 9: single SC 50 nmol/kg, mean, read-out: CL/F (converted)): 13.2 mL/day/kg
Tmax [1, 9]: 12 h
half-life [1, 9]: 115 h
AUC(0-inf) ([1]; male, cynomolgus monkey, plasma, sc, 250 nmol/kg, Table 9: single SC 250 nmol/kg, individual animals, read-out: AUC0-inf): 430 µM·h
Cmax [1, 9]: 3640 nM
CL/F ([1]; male, cynomolgus monkey, plasma, sc, 250 nmol/kg, Table 9: single SC 250 nmol/kg, individual animals, read-out: CL/F (converted)): 13.9 mL/day/kg
Tmax [1, 10]: 12 h
half-life [1, 10]: 110 h
Cmax [1, 10]: 3630 nM
EC50 (rat GLP-1-R; INS1 832-3 cells, cAMP, 30 minutes): 62 nM
cAMP production (rat GLP-1-R; INS1 832-3 cells, data not shown): increased cAMP production in a dose-dependent manner
Emax (rat GLP-1-R; INS1, percent of maximal response with native GLP-1 peptide at 300 nM): 104%
metabolic rate (DIO mice (C57BL/6); DIO mice, chronic treatment): increased their metabolic rate starting from Week 2
Cumulative Heat (Kcal/kg lean mass/3 day) (DIO mice (C57BL/6); Day 1 to Day 4): 1746 ± 96 Kcal/kg lean mass/3 day
Cumulative Heat (Kcal/kg lean mass/3 day) (DIO mice (C57BL/6); Day 4 to Day 7): 1778 ± 132 Kcal/kg lean mass/3 day
Cumulative Heat (Kcal/kg lean mass/3 day) (DIO mice (C57BL/6); Day 7 to Day 10): 2549 ± 129 Kcal/kg lean mass/3 day
Cumulative Heat (Kcal/kg lean mass/3 day) (DIO mice (C57BL/6); Day 10 to Day 13): 2568 ± 147 Kcal/kg lean mass/3 day
500 μL syringe Viscosity [2]: 1.04 cP or mPa-s
